Measured values reported in patent US20220259585A1, “METHODS OF MAKING AND UTILIZING AMBER-OBLIGATED PHAGE DISPLAY LIBRARIES” (The Texas A&M University System, priority 2019, published 2022).
Numbered stars: 1 amine (or outer) side, 2 acyl side, 3 side chain; on linkers, the order of the positions; unused ones are H or OH. Square brackets hold non-standard residues; d marks the D form. Peptide text beside a SMILES is read from it. X1 = CCCC(=S)NCCCC[C@H](N[*:1])C(=O)[*:2]; Abu = CC[C@H](N)C(=O)O

Assays:
MCF-7 cells = assay: Western blot of α-tubulin K40 acetylation in MCF-7 cells (SIRT2 inhibition in cells); assay type: cell-based, human; details: 24 hours; for increase in acetylation level compared to S2P04 in vivo (in cells): cell line not given, cell cultures 50 μM; for α-tubulin acetylation (lysine 40): MCF-7 cells, 50 μM, versus vehicle control (0.25% DMF)
Method: (§1) Finally, Applicant tested the ability of S2P04, a selected peptide with intermediate potency, to inhibit SIRT2 in human embryonic kidney (HEK 293T) and breast cancer cells (MCF-7). […] Following incubation with the inhibitor, Applicant measured the acetylation level of lysine 40 of α-tubulin, a known deacetylation substrate of SIRT2.
MCF-7 (HTB-22) and HEK 293T (CRL-11268) cells purchased from American Type Culture Collection were grown in Dulbecco's Modified Eagle Medium (Invitrogen) containing 10% fetal bovine serum (Invitrogen) at 37° C. in an atmosphere of 5% CO2. Cells were seeded in a 6-well plate (Falcon 353046) at 5×10^5 viable cells/well, and grown for 24-48 hours to 60-70% confluence. […] After incubating with the inhibitors for 24 hours, the media was removed and the cells were washed twice with ice-cold PBS (Invitrogen). Cells were lysed on ice for 30 minutes in 100 μL of buffer containing 25 mM Tris pH 7.4, 150 mM NaCl, 10% glycerol, 4 mM MgCl2, 0.2 mM DTT, 1% NP-40, 25 mM nicotinamide, 5 μM trichostatin A, and 1:100 dilution of protease inhibitor cocktail (Sigma-Aldrich). The lysates were clarified by centrifugation, quantified by BCA assay (Pierce), and aliquots were stored at −80° C. Cell lysates (15 or 20 μg) were resolved by SDS-PAGE under denaturing conditions on a 12% acrylamide gel and then transferred to a 0.2 μm nitrocellulose membrane (Bio-Rad). α-tubulin acetylation (K40) and total α-tubulin were probed with primary antibody clones 6-11B-1, and B-5-1-2, respectively, which were purchased from Sigma-Aldrich (1:2,000 dilution). Primary antibodies were probed with HRP-conjugated goat anti-mouse IgG (Jackson ImmunoResearch Laboratories, Inc., 1:10,000 dilution). Chemiluminescence signals were generated with the SuperSignal™ […] Chemiluminescent substrate (ThermoFisher Scientific) and visualized with a Bio-Rad ChemiDoc XRS+ imaging system.

SIRT2 = molecular target: T1, SIRT2 (Homo sapiens, UniProt Q8IXJ6); assay: Sirtuin inhibition assay with fluorogenic universal sirtuin substrate (SIRT2); assay type: biochemical; details: for IC50: inhibition of SIRT2, mean ± standard deviation of two independent experiments
T1 sequence (Q8IXJ6 1-389): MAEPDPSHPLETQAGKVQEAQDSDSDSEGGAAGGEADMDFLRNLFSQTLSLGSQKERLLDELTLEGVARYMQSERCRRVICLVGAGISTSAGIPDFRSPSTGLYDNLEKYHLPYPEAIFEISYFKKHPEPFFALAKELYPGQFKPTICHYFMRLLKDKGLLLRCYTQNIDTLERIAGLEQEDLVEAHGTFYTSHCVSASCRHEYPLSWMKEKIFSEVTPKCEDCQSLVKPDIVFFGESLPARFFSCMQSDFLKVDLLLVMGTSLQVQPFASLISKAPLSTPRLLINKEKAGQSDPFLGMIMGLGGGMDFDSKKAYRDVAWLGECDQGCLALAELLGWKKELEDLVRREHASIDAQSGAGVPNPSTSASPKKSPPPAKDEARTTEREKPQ
Method: For inhibition assays, the eluted protein was loaded onto a HiPrep 26/10 desalting column (GE Healthcare) that had been pre-equilibrated with Source 15Q buffer A (20 mM Tris pH 8.0, 50 mM NaCl, 0.2 mM DTT, 10% glycerol). The desalted protein was concentrated by ultrafiltration to 1 mL (10 kDa MWCO) and applied to a 10 mL Source 15Q column (GE Healthcare) pre-equilibrated with Source 15Q buffer A. The column was washed with 3 CV (2 mL·min^−1) of Source 15Q buffer A and then eluted with a linear gradient from 0-60% Source 15Q buffer B (20 mM Tris pH 8.0, 1 M NaCl, 0.2 mM DTT, 10% glycerol; 1 mL·min^−1) over 5 CV. The fractions containing pure SIRT2 were concentrated and stored at −80° C. Enzyme concentration was determined from the absorbance at 280 nm using the calculated extinction coefficient of 32,470 M^−1·cm^−1.
Inhibition assays for SIRT1-3 were performed using a recently reported fluorogenic, universal sirtuin substrate (JPT Peptide Technologies, GmbH). The inhibition reactions were performed in 50 μL volumes at 37° C. in black, half-area, 96-well plates. The sirtuin enzyme (0.25 μM) was pre-incubated with different concentrations of the synthetic peptides (0.0064-50 μM for SIRT1 and SIRT2, 0.5-100 μM for SIRT3) or TB (0.16-150 μM for SIRT1-3) and 1 mM NAD^+ in assay buffer (20 mM Tris pH 7.8, 150 mM NaCl, 5 mM MgCl2, 1 mM DTT) for 15 minutes. Following incubation, the reaction was started with the addition of the substrate (5 μM) and product formation was monitored by measuring the fluorescence intensity every 20 seconds for 5 minutes (SIRT2) or 30 minutes (SIRT1 and SIRT3) in a BioTek Synergy H1 microplate reader at λEx=320 nm, λEm=408 nm (gain=130, read height=7 mm). Initial rates of product formation were determined by linear regression of the plot of fluorescence intensity versus time and normalized relative to 0% activity (max inhibitor) and 100% activity (no inhibitor) controls. IC50 values were determined by nonlinear regression of the plot of normalized initial rate versus inhibitor concentration using GraphPad Prism.

SIRT1 = molecular target: T2, SIRT1 (Homo sapiens, UniProt Q96EB6); assay: Sirtuin inhibition assay with fluorogenic universal sirtuin substrate (SIRT1); assay type: biochemical; details: selectivity SIRT2 over SIRT1
T2 sequence (Q96EB6 1-747): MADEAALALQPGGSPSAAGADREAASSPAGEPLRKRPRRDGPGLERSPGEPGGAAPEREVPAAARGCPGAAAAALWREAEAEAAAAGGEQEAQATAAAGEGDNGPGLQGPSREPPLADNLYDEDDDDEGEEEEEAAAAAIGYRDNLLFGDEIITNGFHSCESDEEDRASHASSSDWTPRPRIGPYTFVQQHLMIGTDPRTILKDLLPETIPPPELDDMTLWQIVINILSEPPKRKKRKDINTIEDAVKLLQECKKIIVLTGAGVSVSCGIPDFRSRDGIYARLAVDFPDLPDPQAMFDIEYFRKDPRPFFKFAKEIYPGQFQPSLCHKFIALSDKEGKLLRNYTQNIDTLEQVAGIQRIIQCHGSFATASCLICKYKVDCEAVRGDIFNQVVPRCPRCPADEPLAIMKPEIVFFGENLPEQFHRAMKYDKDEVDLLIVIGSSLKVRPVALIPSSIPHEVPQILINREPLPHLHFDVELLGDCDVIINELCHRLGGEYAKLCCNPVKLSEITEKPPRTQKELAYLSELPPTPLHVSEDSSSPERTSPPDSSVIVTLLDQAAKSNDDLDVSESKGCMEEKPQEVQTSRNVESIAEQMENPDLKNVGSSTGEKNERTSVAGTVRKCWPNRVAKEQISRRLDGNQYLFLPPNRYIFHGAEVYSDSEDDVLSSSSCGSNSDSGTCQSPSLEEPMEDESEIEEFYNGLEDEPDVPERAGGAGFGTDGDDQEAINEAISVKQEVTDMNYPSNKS
Method: Cell pellets were resuspended in 50 mL of lysis buffer (50 mM Tris pH 8.0, 250 mM NaCl, 10 mM imidazole, 0.1 mM phenylmethanesulfonyl fluoride (PMSF), 1% Triton X-100) and incubated with 1 mg·mL^−1 lysozyme (chicken egg white) for 30 minutes on ice. Following incubation, the resuspension was sonicated twice (1 s on, 1 s off, 1 min total, 60% output) and clarified by centrifugation. […] After 30 minutes, the mixture was filtered through a disposable column and the resin was washed with 40 mL of lysis buffer containing 0.1% Triton X-100, followed by 40 mL of lysis buffer without Triton X-100. […] Enzyme concentration was determined from the absorbance at 280 nm using the calculated extinction coefficient of 40,340 M^−1·cm^−1.
Inhibition assays for SIRT1-3 were performed using a recently reported fluorogenic, universal sirtuin substrate (JPT Peptide Technologies, GmbH). […] Following incubation, the reaction was started with the addition of the substrate (5 μM) and product formation was monitored by measuring the fluorescence intensity every 20 seconds for 5 minutes (SIRT2) or 30 minutes (SIRT1 and SIRT3) in a BioTek Synergy H1 microplate reader at λEx=320 nm, λEm=408 nm (gain=130, read height=7 mm). […] IC50 values were determined by nonlinear regression of the plot of normalized initial rate versus inhibitor concentration using GraphPad Prism.

SIRT3 = molecular target: T3, SIRT3 (Homo sapiens, UniProt Q9NTG7); assay: Sirtuin inhibition assay with fluorogenic universal sirtuin substrate (SIRT3); assay type: biochemical; details: selectivity SIRT2 over SIRT3
T3 sequence (Q9NTG7 1-399): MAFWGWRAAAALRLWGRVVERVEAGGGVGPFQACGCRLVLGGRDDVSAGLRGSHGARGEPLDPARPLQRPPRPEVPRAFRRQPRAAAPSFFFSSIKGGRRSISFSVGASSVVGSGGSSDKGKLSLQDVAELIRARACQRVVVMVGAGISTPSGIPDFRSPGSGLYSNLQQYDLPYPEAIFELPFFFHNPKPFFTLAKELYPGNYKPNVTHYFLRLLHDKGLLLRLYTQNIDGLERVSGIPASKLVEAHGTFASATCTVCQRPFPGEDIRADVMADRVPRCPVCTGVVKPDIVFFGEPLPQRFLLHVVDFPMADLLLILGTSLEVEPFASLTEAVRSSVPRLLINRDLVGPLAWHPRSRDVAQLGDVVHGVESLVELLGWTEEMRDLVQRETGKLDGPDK
Method: Cell pellets were resuspended in 50 mL of lysis buffer (50 mM Tris pH 7.4, 150 mM NaCl, 0.1 mM PMSF, 1% Triton X-100) and incubated in the presence of 1 mg·mL^−1 of lysozyme for 30 minutes on ice. Following incubation, the resuspension was sonicated twice (1 s on 1 s off, 1 min total, 60% output) and clarified by centrifugation. To the clarified supernatant was added 3 mL of a 50% slurry of immobilized glutathione resin (Genscript) and the mixture was incubated at 4° C. for 30 minutes with end-over-end rotation. After 30 minutes the mixture was filtered through a disposable column, and the resin was washed with 50 mL of lysis buffer containing 0.1% Triton X-100. […] Enzyme concentration was determined from the absorbance at 280 nm using the calculated extinction coefficient of 80,790 M^−1·cm^−1.
Inhibition assays for SIRT1-3 were performed using a recently reported fluorogenic, universal sirtuin substrate (JPT Peptide Technologies, GmbH). […] Following incubation, the reaction was started with the addition of the substrate (5 μM) and product formation was monitored by measuring the fluorescence intensity every 20 seconds for 5 minutes (SIRT2) or 30 minutes (SIRT1 and SIRT3) in a BioTek Synergy H1 microplate reader at λEx=320 nm, λEm=408 nm (gain=130, read height=7 mm). […]

HEK 293T cells = assay: Western blot of α-tubulin K40 acetylation in HEK 293T cells (SIRT2 inhibition in cells); assay type: cell-based, human; details: 50 μM, 24 hours, versus vehicle control (0.25% DMF)
Method: as §1
MCF-7 (HTB-22) and HEK 293T (CRL-11268) cells purchased from American Type Culture Collection were grown in Dulbecco's Modified Eagle Medium (Invitrogen) containing 10% fetal bovine serum (Invitrogen) at 37° C. in an atmosphere of 5% CO2. Cells were seeded in a 6-well plate (Falcon 353046) at 5×10^5 viable cells/well, and grown for 24-48 hours to 60-70% confluence. […] After incubating with the inhibitors for 24 hours, the media was removed and the cells were washed twice with ice-cold PBS (Invitrogen). Cells were lysed on ice for 30 minutes in 100 μL of buffer containing 25 mM Tris pH 7.4, 150 mM NaCl, 10% glycerol, 4 mM MgCl2, 0.2 mM DTT, 1% NP-40, 25 mM nicotinamide, 5 μM trichostatin A, and 1:100 dilution of protease inhibitor cocktail (Sigma-Aldrich). The lysates were clarified by centrifugation, quantified by BCA assay (Pierce), and aliquots were stored at −80° C. […]

Row | SMILES | increase in acetylation level compared to S2P04 in vivo (in cells) (MCF-7 cells) | IC50 (SIRT2) | α-tubulin acetylation (lysine 40) (MCF-7 cells) | α-tubulin acetylation (lysine 40) (HEK 293T cells) | also measured
1 | CCCC(=S)NCCCC[C@H](NC(=O)[C@@H](NC(=O)[C@@H](NC(=O)[C@H](CS)NC(C)=O)[C@@H](C)O)C(C)C)C(=O)N[C@H](C(N)=O)[C@@H](C)CC [Ac-S2P04-5, Ac-CTVXI-NH2] (Ac-CTV[X1]I-NH2) | neither led to a greater increase in acetylation level compared to S2P04 | – | – | – | –
2 | CCCC(=S)NCCCC[C@H](NC(=O)[C@@H](NC(=O)[C@@H](NC(=O)[C@@H](N)CS)[C@@H](C)O)C(C)C)C(=O)N[C@H](C(N)=O)[C@@H](C)CC [Compound S2P04-5] (H-CTV[X1]I-NH2; N-terminus and C-terminus assumed) | – | 136 ± 29 nM | – | – | –
3 | CCCC(=S)NCCCC[C@H](NC(=O)[C@@H](NC(=O)[C@@H](NC(=O)[C@H](CS)NC(=O)[C@@H](N)[C@@H](C)O)[C@@H](C)O)C(C)C)C(=O)N[C@H](C(=O)NCC(N)=O)[C@@H](C)CC [Compound S2P04, NH2-TCTVXIG-NH2] (H-TCTV[X1]IG-NH2) | – | – | increase in α-tubulin acetylation | increase in α-tubulin acetylation | fold more potent than TB (SIRT2; for each enzyme (SIRT1, SIRT2, SIRT3)): at least 33 fold; fold more potent inhibition of SIRT2 than SIRT1 (SIRT1): 2.7 fold; fold more potent inhibition of SIRT2 than SIRT3 (SIRT3): 152 fold
4 | CCCC(=S)NCCCC[C@H](NC(=O)[C@@H](NC(=O)[C@@H](NC(=O)[C@@H](N)CC)[C@@H](C)O)C(C)C)C(=O)N[C@H](C(N)=O)[C@@H](C)CC [S2P04(Abu)-5, NH2-ZTVXI-NH2] (H-[Abu]TV[X1]I-NH2) | neither led to a greater increase in acetylation level compared to S2P04 | – | – | – | –
5 | CCCC(=S)NCCCC[C@H](NC(=O)OCc1ccccc1)C(=O)Nc1ccccc1 [TB, reference compound] | – | 3110 nM | increase in α-tubulin acetylation compared to the control | No increase in α-tubulin acetylation | –
